Where two headings read alike, the source gives them in different places.
Key:
[1] = From the text: Addition of the solvent was repeated until the test material was completely dissolved, resulting in a visually clear solution.
male C57BL/6J mice [2] = settings: 2% (w/w) ebastine in ethanol/propylene glycol, topical 2.5 mg/cm^2 daily
Protocol: Penetration into the skin was assessed in a sample size of three male mice.
The skin surface of the shaved patch was wiped clean with phosphate buffer saline (1×PBS). Mice were left to acclimate overnight.
For five weeks, the test composition was applied daily at a dose of 2.5 mg/cm^2 using a positive displacement pipette and carefully spread in the 12 cm^2 test area using a clean metal spatula.
At the end of the 5-week study period, 10 hairs from each site were plucked from the upper-middle, middle, and lower-middle patch area of each of the mice. In addition, 10 hairs were plucked from outside the patch area for each of the mice in the nontreatment group. The length of each of the plucked hairs was measured with a microcaliper and the resulting values were averaged.
In the study (as described supra), mice were shaved while in the telogen phase. Shaving stimulated hair growth by inducing the transition from rest (telogen phase) to growth (anagen phase). The shaved patch area for each mouse was observed daily for anagen onset, i.e., the first day of the anagen phase of the hair cycle.

[3] = Stability of ebastine in ethanol composition at 40° C.; assay type: physicochemical; settings: over the tested period (2 months)
male C57BL/6J mice [4] = settings: topical 2.5 mg/cm^2 daily, 5 weeks; monitored throughout the study
Protocol: The modified Draize test is an acute erythema test carried out as follows. A C57BL/6J mouse is shaved in an application area, and the application area allowed to rest for approximately 24 hours and then rinsed with non-irritating soap. A test composition is applied evenly, without significant rubbing, to a 12 cm^2 area of the mouse's skin in a volume of 2.5 mg/cm^2. The sample is allowed to sit uncovered for 24 hours. After 24 hours, the application area is washed gently with lx phosphate buffered saline (1×PBS) and non-irritating soap to facilitate observation of the application area. The application area is then scored according to the following scale: 0=no evidence of erythema; 1=minimal erythema, barely perceptible; 2=definite erythema, readily visible, minimal edema or minimal popular response; 3=erythema and papules; 4=definite edema; 5=erythema, edema, and papules; 6=vesicular eruption; 7=strong reaction spreading beyond test site.
The skin surface of the shaved patch was wiped clean with phosphate buffer saline (1×PBS). Mice were left to acclimate overnight. […]
Clinical signs such as behavior were monitored throughout the study. […] The patch area was assessed for signs of erythema using the modified Draize scoring system and dryness every other day throughout the study period.

[5] = remark: listed apart in the source
Protocol: The pH of each suspension was determined using a pH meter (Orion Star A111, Thermo Scientific, Waltham, Mass.). Following, the pH of each suspension was adjusted with acid 1N HCl to the target pH. A 2 milliliter (mL) sample of the liquid portion of the mixture (supernatant) was removed from the top of each vial and spun in a micro-centrifuge (Eppendorf Minispin, Hamburg Germany) at 12,000 rpm for 2 minutes.
A 10 microliter (μL) sample was injected into a high-performance liquid chromatography machine (HPLC) (Agilent, Santa Clara, Calif.). […] The HPLC system also used a guard column (Phenomenex, Inc.) and a mobile phase consisting of a base solvent of 70 percent (v/v) methanol (Spectrum Chemicals, Gardena, Calif.), and 30 percent (v/v) 40 mM potassium phosphate buffer, pH 4.0 (Spectrum Chemicals, Gardena, Calif.). The HPLC flow rate was 1 mL per minute with a column temperature of 40 degrees centigrade, a detection wavelength of 262 nanometers (nm), and a runtime of at least 15 minutes.

EBASTINE SOLUBILITY AT ROOM TEMP ([1]; Benzyl Benzoate): >45.0 mg/g | EBASTINE SOLUBILITY AT ROOM TEMP ([1]; Diethyl Sebacate): 120.6 mg/g | EBASTINE SOLUBILITY AT ROOM TEMP ([1]; Diethylene Glycol Monoethyl Ether): 33.9 mg/g | EBASTINE SOLUBILITY AT ROOM TEMP ([1]; Dimethyl Succinate): 0.47 mg/g | EBASTINE SOLUBILITY AT ROOM TEMP ([1]; Ethyl Acetate): 245.2 mg/g | EBASTINE SOLUBILITY AT ROOM TEMP ([1]; Methylpyrrolidone): >23.1 mg/g | EBASTINE SOLUBILITY AT ROOM TEMP ([1]; Triacetin): <1.1 mg/g | amount of ebastine soluble in 1 gram of diethyl sebacate ([1]; in 1 gram of diethyl sebacate): approximately 120.6 mg | stability of ebastine in ethanol [3]: stable | clinical signs: behavior (male C57BL/6J mice [4]): No abnormal behavior | Ebastine Solubility in 90:10 Ethanol:Water ([5]; pH 2.3, room temperature): 30.38 (mg/g) | Ebastine Solubility in 90:10 Ethanol:Water ([5]; pH 6.16, room temperature): 33.35 (mg/g) | Ebastine Solubility in 90:10 Ethanol:Water ([5]; pH 7.76, room temperature): 16.58 (mg/g) | Ebastine Solubility in 90:10 Ethanol:Water ([5]; pH 9.90, room temperature): 15.3 (mg/g) | solubility in ethanol and water mixture compared with ethanol alone or water alone ([5]; pH less than about 7, such as 2.3 to 6.2): exceeded | solubility of ebastine in water alone ([5]; water alone, useful pH ranges): less than 2 mg/g | Ebastine Solubility in water ([5]; pH 3.04, room temperature): 1.4 (mg/g) | Ebastine Solubility in water ([5]; pH 5.06, room temperature): 0 (mg/g) | Ebastine Solubility in water ([5]; pH 6.91, room temperature): 0 (mg/g)
SMILES: CC(C)(C)c1ccc(C(=O)CCCN2CCC(OC(c3ccccc3)c3ccccc3)CC2)cc1 [Ebastine, 1-[4-(1,1-dimethylethyl)phenyl]-4-[4-(diphenylmethoxy)-1-piperidinyl]-1-butanone]
time to significant anagen induction (average) (male C57BL/6J mice [2]; mice shaved in telogen phase): 10 days | total average patch coverage with hair (male C57BL/6J mice [2]; study end, after 5 weeks): 90 % of the total patch area | solubility class in 9:1 ethanol:water ([5]; pH range of from 2 to 6): soluble (solubility of 33.3 mg/g or greater) | solubility class in 9:1 ethanol:water ([5]; pH values above 6, such as 7 to 10): at least sparingly soluble (solubility of 10.0 mg/g or greater) | solubility class in water ([5]; pH below 5.0, such as 3.0 to 5.0): slightly soluble (solubility of 1.0 to 10.0 mg/g) | solubility class in water ([5]; pH in the range of 5 to 7, room temperature): insoluble (solubility of less than 1.0 mg/g) | solubility class in water ([5]; pH values of 5 and above): insoluble (solubility of less than 1.0 mg/g)

From patent publication US20200129495A1 (BioPharmX, Inc., priority 2018, published 2020)
